This is an account of results in patent US4812465A, “Triazole derivatives for use as antimycotic agents” (CL Pharma Aktiengesellschaft, priority 1986, dated 1989).

Assay in all cases: In vitro determination of minimum inhibitory concentration (MIC), serial dilution
Holding throughout (type): cell-based

Data set [1] deals with Candida tropicalis. The following applies: 336 h, pH 6, Candida tropicalis, pH 6.0, 22° C., 14 days, read-out: MIC C.trop. As for the experimental part:
(§1) The antimycotic activities of the compounds were measured by in vitro determination of the minimum inhibitory concentration (MIC) for yeasts, molds and dermatophytes.
(§2) 6 dermatophytes, 2 yeasts and 4 molds were used for testing with fungi, as follows:
(§3) The minimum inhibitory concentration (MIC) was determined in serial dilution tests in test tubes. The volume of the liquid nutrient medium in each test tube was 4.5 ml.
(§4) The substances were dissolved in DMSO and diluted with sterile distilled water to 10 concentrations (100, 50, 25, 12.5, 6.25, 3.12, 1.56, 0.78, 0.39 and 0.19 μg/ml). 0.5 ml of each of these dilution steps was added to liquid nutrient medium. Thus, a constant concentration of solvent in all the nutrient media was ensured, irrespective of the active compound concentration.
(§5) A comparison solution which contained only the solvent in appropriate concentration was included when carrying out each of the tests.
(§6) The individual strains were maintained on Sabouraud/beerwort agar slants and, before they were used in a test, they underwent a passage on a modified Sabouraud liquid nutrient medium. The strains were then harvested, washed and converted into a suspension of McFaerland 3 in the case of yeasts and molds and of McFaerland 4-5 in the case of dermatophytes.
(§7) The amount of material inoculated (inoculum) was 100 μl/test tube (inoculated densities: yeasts about 10^3 /ml, molds about 10^4 /ml, dermatophytes about 10^4 /ml). The pH of the liquid nutrient medium was 6.0. After inoculation had taken place the fungi were incubated at 22° C. for 14 days.
(§8) The MIC was then determined. The concentration step at which growth was no longer visible on macroscopic inspection was used for the determination of the MIC. The comparison substance used was 1-(2-(2,4-dichlorophenyl)-2-(2,4-dichlorophenylmethoxy)ethyl)-1H-imidazole(compound A).

Data set [2] has as its system Candida albicans. The following applies: 336 h, pH 6, Candida albicans, pH 6.0, 22° C., 14 days, read-out: MIC C.alb. How it is done:
as §1, §2, §3, §4, §5, §6, §7, §8

Data set [3] concerns Microsporum gypseum. The settings on record: Nannizzia gypsea, 336 h, pH 6, Microsporum gypseum; pH 6.0, 22° C., 14 days; read-out: MIC Mi.gyp. How it is done:
as §1, §2, §3, §4, §5, §6, §7, §8

For data set [4], the system named is Mucor mucedo minus. The following applies: Mucor mucedo, 336 h, pH 6, Mucor mucedo minus; pH 6.0, 22° C., 14 days. As for the experimental part:
as §1, §2, §3, §4, §5, §6, §7, §8

For data set [5], the system named is Mucor mucedo plus. The following applies: Mucor mucedo, 336 h, pH 6, Mucor mucedo plus; pH 6.0, 22° C., 14 days. How it is done: as §1, §2, §3, §4, §5, §6, §7, §8
Data set [6] concerns Trichophyton verrucosum. The following applies: 336 h, pH 6, Trichophyton verrucosum, pH 6.0, 22° C., 14 days. As for the experimental part: as §1, §2, §3, §4, §5, §6, §7, §8
For data set [7], the system named is Epidermophyton floccosum. The settings on record: pH 6.0, 22° C., 14 days; for MIC: 336 h, pH 6, Epidermophyton floccosum. As for the experimental part:
as §1, §2, §3, §4, §5, §6, §7, §8

Data set [8] has as its system Microsporum canis. The settings on record: pH 6.0, 22° C., 14 days; for MIC: 336 h, pH 6, Microsporum canis. How it is done: as §1, §2, §3, §4, §5, §6, §7, §8
Data set [9] deals with Trichophyton rubrum. The settings on record: 336 h, pH 6, Trichophyton rubrum, pH 6.0, 22° C., 14 days. As for the experimental part:
as §1, §2, §3, §4, §5, §6, §7, §8

The subject of data set [10] is Absidia ramosa. The settings on record: pH 6.0, 22° C., 14 days; for MIC: Lichtheimia ramosa, 336 h, pH 6, Absidia ramosa. How it is done:
as §1, §2, §3, §4, §5, §6, §7, §8

Data set [11] relates to Aspergillus fumigatus. The following applies: 20160 min, pH 6. As for the experimental part: as §1, §2, §3, §4, §5, §6, §7, §8
The subject of data set [12] is Trichophyton mentagrophytes. The settings on record: pH 6.0, 22° C., 14 days; for MIC: 336 h, pH 6, Trichophyton mentagrophytes. As for the experimental part: as §1, §2, §3, §4, §5, §6, §7, §8

≈ marks a conversion by molar mass, not a printed value. Where “and” joins values, the source holds several entries; their conditions need not be identical. Identical values can stand only once.

Take `Clc1ccc(C(Cn2ccnc2)NCCCSc2ccccc2)c(Cl)c1` (centres unmarked) [Compound 90]: the MIC – broadly, the smallest concentration in the dilution series that meets the test's criterion for growth inhibition – in data set [1] stood at 3.12 µg/mL (≈ 7.68 µM); in data set [2] it was 6.25 µg/mL (≈ 15.4 µM); in data set [3], 3.12 µg/mL (≈ 7.68 µM); in [4] it was 3.12 µg/mL (≈ 7.68 µM); in data set [5], 6.25 µg/mL; in data set [6], 1.56 µg/mL (≈ 3.84 µM). Besides, the MIC in [7] worked out at 3.12 µg/mL (≈ 7.68 µM); in data set [8] it was 3.12 µg/mL (≈ 7.68 µM); in [9] it was 1.56 µg/mL (≈ 3.84 µM); in data set [10], 12.5 µg/mL (≈ 30.8 µM); in data set [12], 25 µg/mL (≈ 61.5 µM). The “MIC Asp.fu.” value in [11] was 3,12 μg/ml.
Take `COc1ccc(SCCNC(Cn2ccnc2)c2ccc(Cl)cc2Cl)cc1` (centres unmarked) [Compound 39]: the MIC worked out at 12.5 µg/mL (≈ 29.6 µM) in data set [1]; 25 µg/mL (≈ 59.2 µM) in data set [2]; 6.25 µg/mL (≈ 14.8 µM) in data set [3]; 12.5 µg/mL (≈ 29.6 µM) in data set [4]; 12.5 µg/mL in [5]; 6.25 µg/mL (≈ 14.8 µM) in data set [6]. For the same molecule, the MIC in data set [7] came out at 12.5 µg/mL (≈ 29.6 µM); in [8], 12.5 µg/mL (≈ 29.6 µM); in data set [9] it was 6.25 µg/mL (≈ 14.8 µM); in data set [10], 25 µg/mL (≈ 59.2 µM); in data set [12], 6.25 µg/mL (≈ 14.8 µM). The “MIC Asp.fu.” value in data set [11] was 12,5 μg/ml.
As to `COc1ccc(OCCCNC(Cn2ccnc2)c2ccc(Cl)cc2Cl)cc1` (centres unmarked) [Compound 67], the MIC was 50 µg/mL (≈ 119 µM) in data set [1]; 25 µg/mL (≈ 59.5 µM) in data set [3]; 6.25 µg/mL (≈ 14.9 µM) in [6]; 100 µg/mL (≈ 238 µM) in data set [7]; 50 µg/mL (≈ 119 µM) in data set [8]; 100 µg/mL (≈ 238 µM) in data set [10]. In data set [12], this molecule yielded an MIC of 100 µg/mL (≈ 238 µM). The “MIC Ep.flo” value in [7] is recorded as 50,0 μg/ml. For the same molecule, in data set [8], the “MIC Mi.can” value was 25,0 μg/ml. For the same molecule, the “MIC Abs.ra.” value in data set [10] (Absidia ramosa) was 50,0 μg/ml. Also, the “MIC Tri.me.” value in data set [12] is given as 50,0 μg/ml.
Take `Clc1ccc(SCCCNC(Cn2cncn2)c2ccc(Cl)cc2)cc1` (centres unmarked) [Compound 99]: the MIC in data set [1] came out at 12.5 µg/mL (≈ 30.7 µM); in data set [2], 6.25 µg/mL (≈ 15.3 µM); in data set [3], 3.12 µg/mL (≈ 7.66 µM); in [4], 6.25 µg/mL (≈ 15.3 µM); in data set [5], 12.5 µg/mL; in data set [6], 3.12 µg/mL (≈ 7.66 µM). Further, the MIC stood at 6.25 µg/mL (≈ 15.3 µM) in data set [7]; 12.5 µg/mL (≈ 30.7 µM) in data set [8]; 3.12 µg/mL (≈ 7.66 µM) in [9]; 100 µg/mL (≈ 245 µM) in [10]; 6.25 µg/mL (≈ 15.3 µM) in [12]. In [11], the “MIC Asp.fu.” value was 100 µg/mL (≈ 245 µM).
With `Clc1ccc(SCCCNC(Cn2cncn2)c2ccc(Cl)cc2Cl)cc1` (centres unmarked) [Compound 95], the MIC in [1] came to 12.5 µg/mL (≈ 28.3 µM); in data set [2], 12.5 µg/mL (≈ 28.3 µM); in [3] it was 3.12 µg/mL (≈ 7.06 µM); in [4], 3.12 µg/mL (≈ 7.06 µM); in data set [5] it was 3.12 µg/mL; in data set [6] it was 3.12 µg/mL (≈ 7.06 µM). Moreover, the MIC in [7] was found to be 0.78 µg/mL (≈ 1.77 µM); in [8] it was 6.25 µg/mL (≈ 14.1 µM); in data set [9], 1.56 µg/mL (≈ 3.53 µM); in data set [10], 100 µg/mL (≈ 226 µM); in data set [12] it was 3.12 µg/mL (≈ 7.06 µM). The “MIC Asp.fu.” value in data set [11] is recorded as 12,5 μg/ml.
For the molecule `Clc1ccc(C(Cn2ccnc2)NCCSc2ccc(Br)cc2)c(Cl)c1` (centres unmarked) [Compound 37], the MIC amounted to 6.25 µg/mL (≈ 13.3 µM) in [1]; 6.25 µg/mL (≈ 13.3 µM) in [2]; 0.78 µg/mL (≈ 1.66 µM) in data set [3]; 6.25 µg/mL (≈ 13.3 µM) in [4]; 6.25 µg/mL in [5]; 1.56 µg/mL (≈ 3.31 µM) in data set [6]. The MIC was found to be 1.56 µg/mL (≈ 3.31 µM) in [7]; 6.25 µg/mL (≈ 13.3 µM) in data set [8]; 1.56 µg/mL (≈ 3.31 µM) in data set [9]; 12.5 µg/mL (≈ 26.5 µM) in [10]; 1.56 µg/mL (≈ 3.31 µM) in data set [12]. Moreover, the “MIC Asp.fu.” value in data set [11] is 6,25 μg/ml.
Regarding `Clc1ccc(C(Cn2ccnc2)NCCSc2ccc3ccccc3c2)c(Cl)c1` (centres unmarked) [Compound 40], the MIC in [2] was found to be 6.25 µg/mL (≈ 14.1 µM); in data set [3], 3.12 µg/mL (≈ 7.05 µM); in data set [4], 25 µg/mL (≈ 56.5 µM); in data set [5], 12.5 µg/mL; in [6], 3.12 µg/mL (≈ 7.05 µM); in [9], 3.12 µg/mL (≈ 7.05 µM). In addition, the MIC worked out at 12.5 µg/mL (≈ 28.3 µM) in data set [10] and 6.25 µg/mL (≈ 14.1 µM) in [12]. In addition, the “MIC Ep.flo” value in [7] is 3,12 μg/ml and 6,25 μg/ml.
